This is an account of results in patent publication US9981976B2, “Piperidine substituted pyrazolo[1,5-A]pyrimidine derivatives with inhibitory activity on the replication of the respiratory syncytial virus (RSV)” (priority 2014, dated 2018).

Series [1] has as its system rgRSV224 virus. The series can be described thus: microbe, parasite or virus in culture. It is filed as cell-based, respiratory syncytial virus (RSV). Conditions: human respiratory syncytial virus, HeLa, 72 h, read-out: RSV HELA pEC50, rgRSV224 virus (MOI=1), HeLa cells, GFP expression three days post-virus exposure (converted).
Series [2] concerns HeLa cells. Description: Cytotoxicity in HeLa cells, ATP content (ATPlite kit). The conditions noted are these: three days incubation, CC50 = 50% concentration for cytotoxicity. On the technique in general: Cellular ATP, detected with luciferase, serves as a proxy for viable cell number.
Experimental: Black 384-well clear-bottom microtiter plates (Corning, Amsterdam, The Netherlands) were filled via acoustic drop ejection using the echo liquid handler (Labcyte, Sunnyvale, Calif.). 200 nL of compound stock solutions (100% DMSO) were transferred to the assay plates. 9 serial 4-fold dilutions of compound were made, creating per quadrant the same compound concentration. The assay was initiated by adding 10 μL of culture medium to each well (RPMI medium without phenol red, 10% FBS-heat inactivated, 0.04% gentamycin (50 mg/mL). All addition steps are done by using a multidrop dispenser (Thermo Scientific, Erembodegem, Belgium). Next, rgRSV224 virus (MOI=1) diluted in culture medium was added to the plates. rgRSV224 virus is an engineered virus that includes an additional GFP gene (Hallak L K, Spillmann D, Collins P L, Peeples M E. Glycosaminoglycan sulfation requirements for respiratory syncytial virus infection; Journal of virology (2000), 74(22), 10508-13) and was in-licensed from the NIH (Bethesda, Md., USA). Finally, 20 μL of a HeLa cell suspension (3,000 cells/well) were plated. Medium, virus- and mock-infected controls were included in each test. The wells contain 0.05% DMSO per volume. Cells were incubated at 37° C. in a 5% CO2 atmosphere. Three days post-virus exposure, viral replication was quantified by measuring GFP expression in the cells by an in house developed MSM laser microscope (Tibotec, Beerse, Belgium). The EC50 was defined as the 50% inhibitory concentration for GFP expression. In parallel, compounds were incubated for three days in a set of white 384-well microtiter plates (Corning) and the cytotoxicity of compounds in HeLa cells was determined by measuring the ATP content of the cells using the ATPlite kit (Perkin Elmer, Zaventem, Belgium) according to the manufacturer's instructions. The CC50 was defined as the 50% concentration for cytotoxicity.

Molecules are shown by their SMILES.

As to `Cc1nc2c(N3CCCCC3c3cc4nc(N5CCC5)cc(N5CCOCC5)n4n3)ncnc2s1` (stereo not drawn) [P20, 4-(5-(azetidin-1-yl)-2-(1-(2-methylthiazolo[5,4-d]pyrimidin-7-yl)-piperidin-2-yl)pyrazolo[1,5-a]pyrimidin-7-yl)morpholine], the melting point (commonly the temperature, or range, at which the solid turns liquid) worked out at 229.8 °C. Also, in series [1], the EC50 is 631 nM. Besides, the “SI TOX HELA” value in series [2] was found to be 5.4.
`Cc1ccc2ncnc(N3CCCCC3c3cc4nc(N5CCC5)c(C)cn4n3)c2c1` (stereo not drawn) [P11, 4-(2-(5-(azetidin-1-yl)-6-methylpyrazolo[1,5-a]pyrimidin-2-yl)-piperidin-1-yl)-6-methylquinazoline] showed a melting point of 205.49 °C. In series [1], the EC50 is 126 nM. Also, in series [2], the “SI TOX HELA” value is reported as <4.6.
Consider `Cc1ccc2ncnc(N3CCCCC3c3cc4nc(N5CC(O)C5)c(C)cn4n3)c2c1` (stereo not drawn) [P12, 1-(6-methyl-2-(1-(6-methylquinazolin-4-yl)piperidin-2-yl)pyrazolo-[1,5-a]pyrimidin-5-yl)azetidin-3-ol], for which the melting point is 233.08 °C. For the same molecule, in series [1], the EC50 was 200 nM. The “SI TOX HELA” value in series [2] was <4.
Consider `Cc1nc(N2CCCCC2c2cc3nc(N4CC(N)C4)c(C)cn3n2)c2c(C)cccc2n1` (stereo not drawn) [P27, 1-(2-(1-(2,5-dimethylquinazolin-4-yl)piperidin-2-yl)-6-methyl-pyrazolo[1,5-a]pyrimidin-5-yl)azetidin-3-amine], for which the melting point was determined as 176.85 °C. Further, the EC50 in series [1] is 631 nM. In addition, the “SI TOX HELA” value in series [2] was 4.5.
In turn, `COC(=O)N(C(=O)OC)c1nc(N2CCCCC2c2cc3nc(N4CCC4)cc(N4CCOCC4)n3n2)c2c(C)cccc2n1` (stereo not drawn) [P28, dimethyl (4-{2-[5-(azetidin-1-yl)-7-(morpholin-4-yl)pyrazolo[1,5-a]-pyrimidin-2-yl]piperidin-1-yl}-5-methylquinazolin-2-yl)imidodicarbonate] gave a melting point of 136.62 °C. Besides, the EC50 in series [1] is 794 nM. Moreover, in series [2], the “SI TOX HELA” value is <4.
